Test [1] has as its target T1, hM4Di (Homo sapiens, UniProt P08173, Y113C/A203G).
T1 construct: gene CHRM4; human M4 muscarinic receptor DREADD; AAV plasmid Addgene #89150; transiently expressed in HEK-293 cells; docking model prints Y113G/A203G, the standard DREADD is Y113C/A203G
T1 sequence (P08173 1-479 Y113C/A203G): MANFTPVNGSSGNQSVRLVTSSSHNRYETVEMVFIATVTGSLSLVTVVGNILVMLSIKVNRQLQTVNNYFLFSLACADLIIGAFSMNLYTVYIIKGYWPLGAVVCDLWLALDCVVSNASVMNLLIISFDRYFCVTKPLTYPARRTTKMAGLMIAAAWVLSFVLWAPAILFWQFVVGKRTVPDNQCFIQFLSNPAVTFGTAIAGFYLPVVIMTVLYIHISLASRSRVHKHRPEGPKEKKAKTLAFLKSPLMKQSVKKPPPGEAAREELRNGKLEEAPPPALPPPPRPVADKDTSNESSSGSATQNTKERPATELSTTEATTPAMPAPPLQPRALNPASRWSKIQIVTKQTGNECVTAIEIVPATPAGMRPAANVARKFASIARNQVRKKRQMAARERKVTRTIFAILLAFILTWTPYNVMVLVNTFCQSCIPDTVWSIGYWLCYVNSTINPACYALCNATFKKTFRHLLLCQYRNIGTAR
Description: [3H]clozapine competition, HEK-293 membranes. Format: binding. The conditions noted are these: 2.5 nM [3H]clozapine, 50 mM Tris-HCl pH 7.4, 10 mM MgCl2, RT, 2 h.

Test [2] deals with T2, hM3Dq (Homo sapiens, UniProt P20309, Y149C/A239G).
T2 construct: gene CHRM3; human M3 muscarinic receptor DREADD; AAV plasmid Addgene #89149; transiently expressed in HEK-293 cells
T2 sequence (P20309 whole entry Y149C/A239G): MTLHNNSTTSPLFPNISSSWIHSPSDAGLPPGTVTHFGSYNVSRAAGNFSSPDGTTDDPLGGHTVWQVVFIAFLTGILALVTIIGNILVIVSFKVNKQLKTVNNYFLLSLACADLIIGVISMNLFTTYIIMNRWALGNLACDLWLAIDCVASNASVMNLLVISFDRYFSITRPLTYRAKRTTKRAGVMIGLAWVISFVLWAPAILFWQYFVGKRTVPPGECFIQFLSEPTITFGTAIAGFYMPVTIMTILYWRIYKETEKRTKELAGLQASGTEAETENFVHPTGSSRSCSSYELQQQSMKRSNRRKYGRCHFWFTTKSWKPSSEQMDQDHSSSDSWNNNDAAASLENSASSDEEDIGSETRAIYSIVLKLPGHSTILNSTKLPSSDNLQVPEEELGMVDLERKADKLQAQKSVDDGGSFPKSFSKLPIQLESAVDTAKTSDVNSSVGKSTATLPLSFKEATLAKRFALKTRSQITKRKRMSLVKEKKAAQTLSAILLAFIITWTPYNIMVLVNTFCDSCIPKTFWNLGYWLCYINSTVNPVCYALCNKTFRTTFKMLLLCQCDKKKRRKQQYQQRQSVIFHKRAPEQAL
Description: [3H]clozapine competition, HEK-293 membranes. Format: binding. The following applies: 2.5 nM [3H]clozapine, 50 mM Tris-HCl pH 7.4, 10 mM MgCl2, RT, 2 h.

For test [3], the target named is T3, hM4Di (Homo sapiens, UniProt P08173, A203G/Y113C).
T3 construct: gene CHRM4; human M4 muscarinic receptor DREADD; AAV plasmid Addgene #89150; transiently expressed in HEK-293 cells; docking model prints Y113G/A203G, the standard DREADD is Y113C/A203G
T3 sequence (P08173 1-479 Y113C/A203G): T1 sequence (P08173 1-479 Y113C/A203G)
Description: [3H]clozapine competition, HEK-293 membranes. Format: binding.

Test [4] has as its target T1, hM4Di. Description: BRET Galpha-o1 activation, HEK-293. The following applies: agonist; PBS; Galpha-Rluc8, beta1, gamma2-mVenus. It is filed as cell-based.
Test [5] addresses T4, hM3Dq (Homo sapiens, UniProt P20309, A239G/Y149C).
T4 construct: gene CHRM3; human M3 muscarinic receptor DREADD; AAV plasmid Addgene #89149; transiently expressed in HEK-293 cells
Nature of the test: [3H]clozapine competition, HEK-293 membranes. It is filed as binding.

T4 sequence (P20309 whole entry Y149C/A239G): as above

As to `CCN1CCN(C2=Nc3cc(Cl)ccc3Nc3ccccc32)CC1` [C13, Compound 13], the Ki at hM4Di [1] and at hM3Dq [2] was 4.3 nM in each case.

With `c1ccc2c(c1)N=C(N1CCNCC1)c1ccccc1N2` [C21, Compound 21], the Ki was found to be 91 nM on hM4Di [3] and 230 nM at hM3Dq [5]. Further, the EC50 result on hM4Di [4] is listed as “C21 was less potent than clozapine at Gi/o activation in cells or tissue expressing hM4Di”.

For the compound `CN1CCN(C2=Nc3cc(Cl)ccc3Nc3ccccc32)CC1` [CLZ, clozapine], the EC50 entry at hM4Di [4] is on record as “C21 was less potent than clozapine at Gi/o activation in cells or tissue expressing hM4Di”.

For the origin of these results see article doi:10.1101/487637v1, “Chemogenetic ligands for translational neurotheranostics” (biorxiv, 2018).
